Results as given in patent US12377100B2 (GILEAD SCIENCES, INC., priority 2015, dated 2025).

How the values were obtained:
Assay type in all cases: cell-based
Details in all cases: human PBMCs, 24 hours incubation
TNFα = assay: PBMC cytokine profiling assay, TNFα induction
Procedure: (§1) Certain compounds disclosed herein we tested according to the procedure described below. Additionally, certain reference compounds were prepared and tested along with the compounds of the present disclosure.
(§2) Compounds were dissolved and stored in DMSO (Sigma-Aldrich, St. Louis, MO) at 10 mM concentration.
(§3) Cryopreserved human PBMCs isolated from healthy donors were purchased from StemCell Technologies (Vancouver, Canada). Cell culture medium used was RPMI with L-Glutamine (Mediatech, Manassas, VA) supplemented with 10% fetal bovine serum (Hyclone, GE Healthcare, Logan, UT) and Penicillin-Streptomycin (Mediatech). Human TNFα, IL12p40, and IFNα2a 384-well Assay capture plates, standards, buffers and processing reagents were obtained from MesoScale Discovery Technologies (MSD; Rockville, MD).
(§4) Cryopreserved human PBMCs (1×10e8 cells/ml) were thawed at 37° C. and resuspended in 25 mL warm cell culture medium. The cells were pelleted at 200×g (Beckman Avanti J-E) for 5 min and resuspended in 20 mL of fresh culture media. Cells were counted using a Cellometer (Nexcelcom Bioscience), adjusted to 2×10e6 cells, and incubated for 2 hours in an incubator set at 37° C., 5% CO2 to recover from cryopreservation. Compounds were serially diluted in DMSO at half-log steps to generate a 10-point dose range. Using a Bravo pipette equipped with a 384 well head (Agilent), 0.4 μL of compound was transferred to each well of a 384 well black, clear bottom plate (Greiner Bio-One, Germany) containing 30 μL of cell culture medium. Recovered PBMCs were then dispensed into the assay plate at 50 μL per well (100k cells/well) using the MicroFlow multichannel dispenser (Biotek). Final DMSO concentration was 0.5%. DMSO was used as the negative control. The plates were incubated for 24 hours at 37° C. PBMCs in the assay plate were pelleted by centrifugation (Beckman Avanti J-E) at 200×g for 5 min.
(§5) Using a Biomek FX 384 well pipetting station (Beckman), conditioned culture medium (CCM) from the assay plate was transferred to MSD capture plates customized for each cytokine. For IFNα and IL12-p40 detection, 25 μL and 20 μL of CCM were added directly to each capture plate, respectively. For TNFα detection, CCM was diluted 1:9 in fresh culture medium, and 20 μL of diluted CCM was used. Serially diluted calibration standards for each cytokine were used to generate standard curves and establish assay linearity. The plates were sealed and incubated overnight at 4° C. in a plate shaker (Titer Plate) set at 200 rpm. On the following day, antibodies specific for each cytokine were diluted 1:50 in MSD Diluent 100 antibody dilution buffer. Diluted antibodies were added to corresponding capture plates at 10 μL/well, and incubated at RT for 1-2 hrs in the shaker. The plates were washed with PBST buffer (3×, 60 μl/well) using a Biotek Multiflow plate washer. MSD Read Buffer diluted to 2× in deionized water and 35 μL/well was added via Biomek FX instrument. The plates were read immediately in a MSD6000 reader. Data were normalized to positive and negative controls in each assay plate. AC50 values represent compound concentrations at half-maximal effect based on normalized percent activation and calculated by non-linear regression using Pipeline Pilot software (Accelrys, San Diego, CA).

IL12p40 = assay: PBMC cytokine profiling assay, IL12-p40 induction
Procedure: as §1, §2, §3, §4, §5

IFNα = assay: PBMC cytokine profiling assay, IFNα induction
Procedure: as §1, §2, §3, §4, §5

SMILES: CCCC[C@@H](Nc1nc(N)nc2cccnc12)C(O)CF (single isomer, unassigned) [Example 88]
- AC50 (TNFα; Homo sapiens, PBMC, 24 h): 0.4 µM
- AC50 (IL12p40; Homo sapiens, PBMC, 24 h): 0.37 µM
- AC50 (IFNα; Homo sapiens, PBMC, 24 h): 35.6 µM

SMILES: CCCC[C@@H](Nc1nc(N)nc2cccnc12)C(O)C(F)F (single isomer, unassigned) [Example 90]
- AC50 (TNFα; Homo sapiens, PBMC, 24 h): 0.86 µM
- AC50 (IL12p40; Homo sapiens, PBMC, 24 h): 0.62 µM
- AC50 (IFNα; Homo sapiens, PBMC, 24 h): 7.8 µM

SMILES: CCCC[C@](C)(Nc1nc(N)nc2cccnc12)C(C)O (single isomer, unassigned) [Example 92]
- AC50 (TNFα; Homo sapiens, PBMC, 24 h): 4.3 µM
- AC50 (IL12p40; Homo sapiens, PBMC, 24 h): 4.7 µM
- AC50 (IFNα; Homo sapiens, PBMC, 24 h): > 50 µM

SMILES: CCCC[C@@](C)(Nc1nc(N)nc2cc(F)cnc12)C(C)O (single isomer, unassigned) [Example 94]
- AC50 (TNFα): 1 µM
- AC50 (IL12p40): 0.7 µM
- AC50 (IFNα): 2.2 µM

SMILES: CCCC[C@@](C)(Nc1nc(N)nc2cccnc12)C(C)O (single isomer, unassigned) [Example 96]
- AC50 (TNFα): 1.1 µM
- AC50 (IL12p40): 1 µM
- AC50 (IFNα): 2.8 µM

SMILES: CCCCNc1nc(N)nc2cccnc12 [Example 1B, N^4-butylpyrido[3,2-d]pyrimidine-2,4-diamine]
- AC50 (TNFα; Homo sapiens, PBMC, 24 h): 3.9 µM
- AC50 (IL12p40; Homo sapiens, PBMC, 24 h): 2 µM
- AC50 (IFNα; Homo sapiens, PBMC, 24 h): 2.7 µM

SMILES: CCCC(C)Nc1nc(N)nc2cccnc12 (stereo not drawn) [Example 2B, N^4-(pentan-2-yl)pyrido[3,2-d]pyrimidine-2,4-diamine]
- AC50 (TNFα; Homo sapiens, PBMC, 24 h): 5.4 µM
- AC50 (IL12p40; Homo sapiens, PBMC, 24 h): 2.8 µM
- AC50 (IFNα; Homo sapiens, PBMC, 24 h): 4.3 µM

SMILES: CC(C)C[C@@H](CO)Nc1nc(N)nc2cccnc12 [Example 3B, (S)-2-((2-aminopyrido[3,2-d]pyrimidin-4-yl)amino)-4-methylpentan-1-ol]
- AC50 (TNFα; Homo sapiens, PBMC, 24 h): 29.4 µM
- AC50 (IL12p40; Homo sapiens, PBMC, 24 h): 15.5 µM
- AC50 (IFNα; Homo sapiens, PBMC, 24 h): 14.5 µM

SMILES: Nc1nc(N[C@H](CO)CC2CC2)c2ncccc2n1 [Example 4B, (S)-2-((2-aminopyrido[3,2-d]pyrimidin-4-yl)amino)-3-cyclopropylpropan-1-ol]
- AC50 (TNFα; Homo sapiens, PBMC, 24 h): 9.1 µM
- AC50 (IL12p40; Homo sapiens, PBMC, 24 h): 5.4 µM
- AC50 (IFNα; Homo sapiens, PBMC, 24 h): 5.9 µM

SMILES: CCC[C@H](Nc1nc(N)nc2cccnc12)C(=O)OC [Example 5B, (S)-methyl 2-((2-aminopyrido[3,2-d]pyrimidin-4-yl)amino)pentanoate]
- AC50 (TNFα; Homo sapiens, PBMC, 24 h): > 50 µM
- AC50 (IL12p40; Homo sapiens, PBMC, 24 h): > 50 µM
- AC50 (IFNα; Homo sapiens, PBMC, 24 h): 41 µM

SMILES: CCC[C@@H](CO)Nc1nc(N)nc2c(Cl)cc(C)nc12 [Example 6B, (S)-2-((2-amino-8-chloro-6-methylpyrido[3,2-d]pyrimidin-4-yl)amino)pentan-1-ol]
- AC50 (TNFα; Homo sapiens, PBMC, 24 h): > 50 µM
- AC50 (IL12p40; Homo sapiens, PBMC, 24 h): > 50 µM
- AC50 (IFNα; Homo sapiens, PBMC, 24 h): > 50 µM

SMILES: Nc1nc(N[C@H](CO)c2ccccc2)c2ncccc2n1 [Example 7, (S)-2-((2-aminopyrido[3,2-d]pyrimidin-4-yl)amino)-2-phenylethanol]
- AC50 (TNFα; Homo sapiens, PBMC, 24 h): > 50 µM
- AC50 (IL12p40; Homo sapiens, PBMC, 24 h): > 50 µM
- AC50 (IFNα; Homo sapiens, PBMC, 24 h): 34 µM

SMILES: CCC[C@H](CO)Nc1nc(N)nc2cccnc12 [Example 8, (R)-2-((2-aminopyrido[3,2-d]pyrimidin-4-yl)amino)pentan-1-ol]
- AC50 (TNFα; Homo sapiens, PBMC, 24 h): 20.2 µM
- AC50 (IL12p40; Homo sapiens, PBMC, 24 h): 19.4 µM
- AC50 (IFNα; Homo sapiens, PBMC, 24 h): > 50 µM

SMILES: CC[C@H](C)[C@@H](CO)Nc1nc(N)nc2cccnc12 [Example 9, (2S,3S)-2-((2-aminopyrido[3,2-d]pyrimidin-4-yl)amino)-3-methylpentan-1-ol]
- AC50 (TNFα; Homo sapiens, PBMC, 24 h): 1.9 µM
- AC50 (IL12p40; Homo sapiens, PBMC, 24 h): 1.1 µM
- AC50 (IFNα; Homo sapiens, PBMC, 24 h): 7.2 µM

SMILES: CSCC[C@@H](CO)Nc1nc(N)nc2cccnc12 [Example 10, (S)-2-((2-aminopyrido[3,2-d]pyrimidin-4-yl)amino)-4-(methylthio)butan-1-ol]
- AC50 (TNFα; Homo sapiens, PBMC, 24 h): 29.2 µM
- AC50 (IL12p40; Homo sapiens, PBMC, 24 h): 23.8 µM
- AC50 (IFNα; Homo sapiens, PBMC, 24 h): > 50 µM

SMILES: CCCCCNc1nc(N)nc2cccnc12 [Example 11, N^4-pentylpyrido[3,2-d]pyrimidine-2,4-diamine]
- AC50 (TNFα; Homo sapiens, PBMC, 24 h): 10.1 µM
- AC50 (IL12p40; Homo sapiens, PBMC, 24 h): 6 µM
- AC50 (IFNα; Homo sapiens, PBMC, 24 h): 6.9 µM

SMILES: Nc1nc(NCCO)c2ncccc2n1 [Example 12, 2-((2-aminopyrido[3,2-d]pyrimidin-4-yl)amino)ethanol]
- AC50 (TNFα; Homo sapiens, PBMC, 24 h): > 50 µM
- AC50 (IL12p40; Homo sapiens, PBMC, 24 h): > 50 µM
- AC50 (IFNα; Homo sapiens, PBMC, 24 h): > 50 µM

SMILES: Nc1nc(NCCCO)c2ncccc2n1 [Example 13, 3-((2-aminopyrido[3,2-d]pyrimidin-4-yl)amino)propan-1-ol]
- AC50 (TNFα; Homo sapiens, PBMC, 24 h): > 50 µM
- AC50 (IL12p40; Homo sapiens, PBMC, 24 h): > 50 µM
- AC50 (IFNα; Homo sapiens, PBMC, 24 h): > 50 µM
